row,SMILES,melting point
1,CCNC(=O)N1CCc2[nH]cnc2C1CCC1CCCCC1 (configuration not stated),210 to 212 °C
2,OCC1(CO)CC2C=CC1C2 (configuration not stated),110 °C
3,CCCCCCCCCCCCCCCCCCOc1cc(OCCCOc2ccc(S(C)(=O)=O)cc2)cc(C(=O)O)c1,110 to 111 °C
4,Cc1[nH]c(Cc2ccccc2)nc1CO,134 to 138 °C
5,COC(=O)c1cc(C)c(-c2cccc(OCc3ccc(COC(=O)c4ccccc4)c(COC(=O)c4ccccc4)c3)c2C)c(C)c1,131 to 132 °C
6,O=C1CN(C(=O)c2ccccc2)c2ccccc2N1,208 °C
7,CN(C)C1(c2ccccc2)CCC(=CC(=O)NCCCc2c[nH]c3ccccc23)CC1 (configuration not stated),85 to 87 °C
8,NC(=O)NC1(C(=O)O)CCCc2ncc(Cl)cc21 (configuration not stated),188 to 190 °C
9,CSc1ncc(Oc2cnccc2C)c(=O)[nH]1,162 to 164 °C
10,O=C(C=CCN1CCN(CC(=O)OCc2ccccc2)CC1)Nc1cc2c(Nc3ccc(F)c(Cl)c3)ncnc2cc1OCC1CC1,174 °C
11,CCCC1CCC(C#Cc2ccc(OCC)c(F)c2F)CC1 (configuration not stated),64 °C
12,O=C(NCCCc1ccncc1)N(CCCCC(F)(F)F)CCC12CC3CC(CC(C3)C1)C2,117 to 119 °C
13,CN(C)CCN1C(=O)c2ccc3[nH]c4ccc(N)cc4c3c2C1=O,217 to 218 °C
14,O=C(Nc1n[nH]c2c(F)cccc12)c1ccccc1,232 °C
15,N#Cc1ccc(NN)cc1,84 to 87 °C
16,NS(=O)(=O)NC(=O)CCCCCC1CCSS1 (configuration not stated),130 to 132 °C
17,CCOc1ccc(-c2ccc3c(c2)C=C(C(=O)OC(C)(C)C)CCN3C)cc1,140 to 142 °C
18,Nc1nc(-c2ccc(CCCCN3CCN(c4cccc(C(F)(F)F)c4)CC3)cc2)cs1,174 to 179 °C
19,COC(=O)CC(=O)c1cc(F)c(F)c(F)c1F,68 to 72 °C
20,OCC(I)c1ccccc1 (configuration not stated),71 to 72 °C
21,COC(=O)CCCN1CCC(NC(=O)c2ccccc2)CC1,116 °C
22,O=C(O)c1cnc2n(c1=O)CCC=C2Nc1ccccc1,197 to 198 °C
23,O=Cc1ccc(OCC=Cc2ccccc2)cc1,89.5 to 90.5 °C
24,O=C(O)CCCCc1c[nH]c2ccccc12,80 to 83 °C
25,O=C(NCc1ncc[nH]1)c1[nH]c2ccc(Cl)cc2c1S(=O)(=O)c1ccccc1,276 to 278 °C
26,COc1ccc(C(=O)c2c(O)c3ccccc3[nH]c2=O)cc1OC,235 to 236 °C

row,SMILES,melting point
1,CCC(CC)n1nc2c(C(F)(F)F)cccc2c1-c1ccc(OC)cc1OC,138 to 139 °C
2,COC(=O)CC1=C(C)/C(=C/c2ccc(S(C)(=O)=O)cc2)c2ccc(F)cc21,162 to 164 °C
3,Cc1nc(-c2ccc(C(F)(F)F)cc2)sc1CSc1ccc(CC(=O)O)cc1,202 to 203 °C
4,CCOP(=O)(CCCOc1ccc(C(=O)O)cc1)OCC,107 to 110 °C
5,O=C(O)CNC(=O)c1ccc([N+](=O)[O-])cc1F,156 to 158 °C
6,CN(C)CCCOc1ccc(-c2nnc(CSCCOc3ccccc3)n2Cc2ccccc2)cc1,88 to 92 °C
7,O=C(Nc1ccccc1)O[C@@H]1CN=C(c2cccc(Cl)c2)O[C@H]1c1ccccc1 (racemic),126 °C
8,CCc1ccc(C2C(C(=O)c3ccc(C(C)C)cc3)=C(O)C(=O)N2c2ccc(C)nn2)cc1 (configuration not stated),282 to 284 °C
9,CC(=O)c1c(C)[nH]c(-c2ccncc2)c1C,205 to 207 °C
10,COC(=O)CCCC(=O)Nc1ccc(-c2ccc(C#N)cc2)cc1,171 to 173 °C
11,O=C(COc1ccccc1)c1ccc(Cl)cc1,80 to 83 °C
12,COc1ccc(CNc2n[nH]c3ncnc(Nc4cccc(Cl)c4)c23)cc1,222 to 223 °C
13,CC(C)CCCC(C)C1C=CC2(CC(=O)O)C3=C(CCC12C)C1(C)CCC(O)CC1CC3 (configuration not stated),221 to 222 °C
14,COC(=O)C1=Cc2cc(-c3ccc(OCCOC(C)C)cc3)ccc2N(C=O)CC1,107 to 108 °C
15,CCCCc1nn(CCC)c(C(=O)O)c1Cc1ccc(C2(C(=O)O)CC=CC2)s1,121 to 122 °C
16,CC(CCNC(=O)c1ccc(Cl)s1)n1ccnc1 (configuration not stated),141 to 143 °C
17,O=C(O)c1ccc(-n2c(-c3ccccc3)cc3c2CCCC3)cc1O,193 to 195 °C
18,CC(=O)NC(C=CCP(=O)(O)O)C(=O)O (configuration not stated),155 °C
19,CCOc1ccccc1-c1nc2c(C(N)=O)ccnc2c(=O)[nH]1,295 to 297 °C
20,CCCC(=O)Nc1ccccc1Oc1cc(-c2ccc(C(F)(F)F)cc2)ncn1,112 °C
21,CCCCNc1nc(-c2cc(OC)c(OC)c(OC)c2)nc2sc(C#N)c(C)c12,192 to 194 °C
22,CC(=C1SCCCS1)c1ccc(Sc2ccc(O)cc2)cc1,113 to 114 °C
23,CCN(C(=O)c1ccccc1C(=O)c1ccc(Cl)cc1)C(C)(C)CNS(=O)(=O)c1ccc(C)cc1,175 to 176 °C
24,CCCCN(c1nc(Cl)nc(N(CCCC)C2CC(C)(C)N(OC3CCCCC3)C(C)(C)C2)n1)C1CC(C)(C)N(OC2CCCCC2)C(C)(C)C1,75 to 82 °C
25,Cn1c2cc(Cl)ncc2c(=O)n2nccc12,> 300 °C
26,OC(=S)c1ccc2cccnc2c1O,174 to 175 °C

row,SMILES,melting point
1,NS(=O)(=O)c1cc2ccc(O)cc2[nH]1,194 to 195 °C
2,COC(=O)C1=C(Cl)C(=O)CC(c2ccc(Cl)c(OC)c2F)N1 (configuration not stated),127 to 129 °C
3,COc1cccc(C(=O)Nc2ccc(N3CCCC3)cc2C(C)=O)c1OC,137 to 140 °C
4,O=C1NC(c2ccc(Cl)cc2)Nc2ccccc21 (configuration not stated),190 °C
5,CN(C)c1ccc(-n2c(CC(=O)O)c(C(=O)O)c3cc(Oc4ccc(OC(F)(F)F)cc4)ccc32)cc1,188 to 192 °C
6,O=S(CCCCl)Cc1ccccc1 (configuration not stated),70 to 71 °C
7,CNC(=O)c1cc2c(nc(C)n2C)c2c1C(=O)CC1(Cc3ccccc3C1)N2,261 °C
8,O=C(Nc1cccc(O)c1)c1ccc(CSc2ccc(O)cc2)cc1,218 to 222 °C
9,CCc1nn(C2CN(C(C)C)C2)c(C(N)=O)c1N,150 to 156 °C
10,CCCCc1nc2c(N)nc3cccnc3c2n1CCNC(=O)c1c(C)noc1C,188 to 189 °C
11,CCCN(CCC)S(=O)(=O)c1ccc(C(CC2CCCC2)C(=O)Nc2nc3ccc(OC)nc3s2)cc1 (configuration not stated),64 to 66 °C
12,CCc1nc(-c2ccc(N3CCN(C(=O)c4ccccc4C(F)(F)F)CC3)nn2)no1,204 °C
13,Cc1nc(C)c(Cl)c(NCc2cccc(O)c2)n1,194 to 197 °C
14,COc1cccc(NC(=O)N[C@H]2C[C@H](C(=O)O)Nc3cc(Cl)cc(Cl)c32)c1 (relative stereo),181 to 183 °C
15,O=Cc1csc(N2CCCCC2)n1,68 to 69 °C
16,O=C(C1(F)CC1Cc1ccc(Cl)cc1)C1(F)CC1Cc1ccc(Cl)cc1 (configuration not stated),53 to 54 °C
17,CCOc1cccc(Oc2cccnc2C#N)c1,83 to 84 °C
18,COC(=O)c1cccc2[nH]nc(S(=O)(=O)NC(C)(C)C)c12,218 to 220 °C
19,COc1ccc(P(=O)(c2ccccc2)c2ccccc2)cc1OC,154 to 156 °C
20,CC(=O)c1ccc(NC(=O)c2ccc(C=O)cc2)cc1,174 °C
21,Oc1cc(CN/C=C2\CN=Cc3ccc(I)cc32)ccc1OC(F)F,254 to 255 °C
22,CCS(=O)(=O)Nc1cc(-n2cnc(C(F)(F)F)cc2=O)c(F)cc1C#N,170 °C
23,COc1ccc(-c2cc(C(F)F)n3ncc(-c4ccncc4)c3n2)cc1,206 °C
24,COC(=O)Nc1nc2cc(-c3noc4ccccc34)ccc2[nH]1,> 300 °C
25,O=C(CNC(=O)OCc1ccc([N+](=O)[O-])cc1)Oc1ccc(C(=O)OCI)cc1,146 to 148 °C
26,O=C1CN2Cc3c(ccc(Cl)c3Cl)N=C2N1,> 300 °C

row,SMILES,melting point
1,CC1(C)CC(=NO)CC(=NO)C1C#N (configuration not stated),139 to 140 °C
2,Cc1cc(C)cc(NCc2ccc3nc(NC4CCNC(CCN5CCOCC5)C4)n(Cc4nc(C)ccc4O)c3c2)c1 (configuration not stated),150 °C
3,NC1=NC(c2ccc(OC(F)(F)F)cc2)(c2cccc(-c3cccnc3F)c2)C2=NCCCCCN12 (configuration not stated),95 to 99 °C
4,CC(=O)N1CCc2cc(Br)cc(C#N)c21,170 to 175 °C
5,CN(C)S(=O)(=O)N1CCN(C(=O)c2ccc(Nc3ccnc4cc(C(F)(F)F)ccc34)cc2)CC1,223 to 224 °C
6,COc1ccc(CN2CCc3c(c(=O)oc4cc(OC)ccc34)C2)cc1,101 to 103 °C
7,Cc1cc([C@@H](O)[C@@H](C)N2CCC(O)(c3ccc(F)cc3)CC2)cc(C)c1O[Si](C(C)C)(C(C)C)C(C)C (relative stereo),186 to 187 °C
8,CCc1ccc(N=c2sc3ncccc3c(=O)n2CC)cc1,148 to 149 °C
9,O=C(O)CCCc1ccc(-c2ccccc2Br)cc1,148 to 149 °C
10,CC1(C)c2ccc(C(O)CN3CCN(c4nsc5ccccc45)CC3)cc2C(C)(C)C1O (configuration not stated),88 to 97 °C
11,COc1ccc2c3c([nH]c2c1)C(=O)C(CC1CCN(C(=O)OC(C)(C)C)CC1)C3 (configuration not stated),192 to 193 °C
12,C[C@@H](c1ccc(C(=O)N(C)NC(N)=S)cc1)[C@](O)(Cn1cncn1)c1ccc(F)cc1F,172 to 173 °C
13,COc1ccc(COc2cccnc2NC(=N)Nc2ccc(Cl)cc2)c(F)c1,158 to 161 °C
14,O=C(O)C(=O)c1ccc(OCC(=O)N2CCN(c3ccccc3)CC2)cc1,188 to 192 °C
15,COC(=O)c1ccc(C)c(NC(=O)c2cccc([N+](=O)[O-])c2)c1,208 to 209 °C
16,COC1OC(=O)c2c(O)cccc21 (configuration not stated),77 to 79 °C
17,Cc1nc(-c2cccnc2)cs1,81 °C
18,Cn1nc(-c2ccc(Cl)cc2)n(C)c1=S,113 to 115 °C
19,CCN(c1ccc(C)cc1)c1cc(NC)nc(C)n1,140 to 143 °C
20,COc1ccc(C(=O)NC(CC(C)C)C(=O)O)c(SSc2cc(OC)ccc2C(=O)NC(CC(C)C)C(=O)O)c1 (configuration not stated),230 to 231 °C
21,C=CCCc1sc(-c2nccs2)c2c1C(=O)CC(C)(C)C2,62 to 65 °C
22,CC1(C)OC(=S)Nc2ccc(-c3sccc3C#N)cc21,194 to 195 °C
23,COc1ccccc1N1CCN(CCCCOc2ccc(-c3cn4ccccc4n3)cc2)CC1,144 to 145 °C
24,Cn1c(=O)c(Oc2ccc(F)cc2F)cc2cnc(S(C)(=O)=O)nc21,177 to 178 °C
